Measured values published in patent publication US20050112033A1, “Multi-well containers, systems, and methods of using the same” (IRM, LLC, priority 2003, published 2005).

Tests used:
[1] = Equilibrium dialysis plasma protein binding in a multi-well container; type: in vitro ADME; details: human plasma vs buffer, 37° C. with gentle shaking, LC/MS detection
Procedure: This example illustrates equilibrium dialysis assays that were performed in a multi-well container of the invention to measure small molecule drug binding to plasma proteins. The assays included filling one well of a pair of wells that communicated via a chamber having a membrane disposed therein with human plasma and the other well of the pair with buffer. The assay included filling multiple pairs of wells in this manner. Each of the small molecules was dispensed into different wells containing plasma. The entire multi-well container was then heated at 37° C. with gentle shaking. […] Binding percentages were determined following detection using liquid chromatography/mass spectrometry.

[2] = literature value; cited from earlier work

Human plasma binding percentage obtained in a multi-well container of the invention [1] | SMILES | Plasma binding percentage stated in the literature [2]
91% | CC(C)NCC(O)COc1cccc2ccccc12 (stereo not shown) [Propranolol] | 93%
65% | COc1cc(Cc2cnc(N)nc2N)cc(OC)c1OC [Trimethoprim] | 44%

Further lines, the compound ahead of its results:

SMILES | Human plasma binding percentage obtained in a multi-well container of the invention [1] | Plasma binding percentage stated in the literature [2]
CN(C)CCCN1c2ccccc2CCc2ccccc21 [Imipramine] | 95% | 95%
Cc1c(O)cccc1C(=O)N[C@@H](CSc1ccccc1)[C@H](O)CN1C[C@H]2CCCC[C@H]2C[C@H]1C(=O)NC(C)(C)C [Nelfinavir] | >99% | >98%
Cn1c(=O)c2[nH]cnc2n(C)c1=O [Theophylline] | – | 56%
CCCCNC(=O)NS(=O)(=O)c1ccc(C)cc1 [Tolbutamide] | – | 96%
